Source: ChEMBL document CHEMBL3885861, “Open TG-GATES”

Species: Rattus norvegicus
Assay: Open TG-GATES - Regimen: Single
Assay type: toxicity, organism-based, Sprague-Dawley
Set-up: regimen Single, gender Male, age 6 weeks
Details: in vivo, po, 100 mg/kg, route gavage, dose level Middle; for APTT / Bas / Eos / Fbg / Hb / Ht / Lym / MCH / MCHC / MCV / Mono / Neu / PT / Plat / RBC / Ret / WBC: tissue Blood; for KIDNEY_L / KIDNEY_R / KIDNEY_TOTAL: tissue Kidney; for LIVER: tissue Liver; for A/G / ALP / ALT / AST / BUN / CRE / Ca / Cl / DBIL / GLC / IP / K / LDH / Na / PL / RALB / TBIL / TC / TG / TP / gamma-GTP: tissue Plasma

## Cc1ccc(C)c(OCCCC(C)(C)C(=O)O)c1 [GEMFIBROZIL]
3 h
  TERMINAL_BW: 221.2 g
  APTT: 15.4 s
  Bas: 0%
  Eos: 0.8%
  Fbg: 283.2 mg/dL
  Hb: 13.4 g/dL
  Ht: 39.6%
  Lym: 78.2%
  MCH: 21.5 pg
  MCHC: 33.8%
  MCV: 63.4 fL
  Mono: 3.2%
  Neu: 17.4%
  PT: 12.4 s
  Plat: 116.9 x10_4/uL
  RBC: 624.4 x10_4/ul
  Ret: 7.2%
  WBC: 76.9 x10_2/uL
  KIDNEY_L: 1 g
  KIDNEY_R: 1 g
  KIDNEY_TOTAL: 1.9 g
  LIVER: 9.4 g
  A/G: 0.8
  ALP: 1811 IU/L
  ALT: 47.8 IU/L
  AST: 80.8 IU/L
  BUN: 11.8 mg/dL
  CRE: 0.2 mg/dL
  Ca: 11.4 mg/dL
  Cl: 104.8 meq/L
  DBIL: 0.068 mg/dL
  GLC: 177 mg/dL
  IP: 10.2 mg/dL
  K: 4.3 meq/L
  LDH: 68.8 IU/L
  Na: 140.6 meq/L
  PL: 174.2 mg/dL
  RALB: 2.5 g/dL
  TBIL: 0.072 mg/dL
  TC: 88 mg/dL
  TG: 155.6 mg/dL
  TP: 5.5 g/dL
  gamma-GTP: 1.2 IU/L
6 h
  TERMINAL_BW: 224.5 g
  APTT: 14.9 s
  Bas: 0%
  Eos: 0.8%
  Fbg: 297 mg/dL
  Hb: 13.9 g/dL
  Ht: 40.4%
  Lym: 76.2%
  MCH: 21.1 pg
  MCHC: 34.4%
  MCV: 61.2 fL
  Mono: 2.8%
  Neu: 19.4%
  PT: 12 s
  Plat: 124.5 x10_4/uL
  RBC: 659.6 x10_4/ul
  Ret: 7.6%
  WBC: 87.8 x10_2/uL
  KIDNEY_L: 0.9 g
  KIDNEY_R: 0.9 g
  KIDNEY_TOTAL: 1.9 g
  LIVER: 8.7 g
  A/G: 0.9
  ALP: 1550.4 IU/L
  ALT: 42.4 IU/L
  AST: 69.6 IU/L
  BUN: 9.8 mg/dL
  CRE: 0.2 mg/dL
  Ca: 11.3 mg/dL
  Cl: 107.2 meq/L
  DBIL: 0.072 mg/dL
  GLC: 181.2 mg/dL
  IP: 10.7 mg/dL
  K: 4.2 meq/L
  LDH: 61.2 IU/L
  Na: 142 meq/L
  PL: 158.2 mg/dL
  RALB: 2.7 g/dL
  TBIL: 0.056 mg/dL
  TC: 83.4 mg/dL
  TG: 89.2 mg/dL
  TP: 5.5 g/dL
  gamma-GTP: 1 IU/L
9 h
  TERMINAL_BW: 221.6 g
  APTT: 16 s
  Bas: 0%
  Eos: 0.8%
  Fbg: 274.2 mg/dL
  Hb: 13.8 g/dL
  Ht: 39.9%
  Lym: 68.2%
  MCH: 21.4 pg
  MCHC: 34.6%
  MCV: 62 fL
  Mono: 2.8%
  Neu: 27.4%
  PT: 12.1 s
  Plat: 125.1 x10_4/uL
  RBC: 643.8 x10_4/ul
  Ret: 7%
  WBC: 83.1 x10_2/uL
  KIDNEY_L: 1 g
  KIDNEY_R: 0.9 g
  KIDNEY_TOTAL: 1.9 g
  LIVER: 8 g
  A/G: 0.9
  ALP: 1612 IU/L
  ALT: 41.8 IU/L
  AST: 70 IU/L
  BUN: 10.8 mg/dL
  CRE: 0.2 mg/dL
  Ca: 11 mg/dL
  Cl: 106.8 meq/L
  DBIL: 0.082 mg/dL
  GLC: 186.8 mg/dL
  IP: 11 mg/dL
  K: 4.1 meq/L
  LDH: 53.4 IU/L
  Na: 142.8 meq/L
  PL: 131.2 mg/dL
  RALB: 2.6 g/dL
  TBIL: 0.054 mg/dL
  TC: 67.6 mg/dL
  TG: 59 mg/dL
  TP: 5.5 g/dL
  gamma-GTP: 1.2 IU/L
24 h
  TERMINAL_BW: 225.5 g
  APTT: 14.8 s
  Bas: 0%
  Eos: 0.6%
  Fbg: 269.6 mg/dL
  Hb: 13.8 g/dL
  Ht: 39.8%
  Lym: 83.4%
  MCH: 21.8 pg
  MCHC: 34.7%
  MCV: 62.9 fL
  Mono: 2.2%
  Neu: 12.8%
  PT: 12.3 s
  Plat: 115.1 x10_4/uL
  RBC: 633.8 x10_4/ul
  Ret: 6.7%
  WBC: 74 x10_2/uL
  KIDNEY_L: 0.9 g
  KIDNEY_R: 0.9 g
  KIDNEY_TOTAL: 1.8 g
  LIVER: 10.4 g
  A/G: 0.9
  ALP: 1796.8 IU/L
  ALT: 43.6 IU/L
  AST: 68.2 IU/L
  BUN: 15.8 mg/dL
  CRE: 0.2 mg/dL
  Ca: 11.3 mg/dL
  Cl: 105 meq/L
  DBIL: 0.072 mg/dL
  GLC: 196.8 mg/dL
  IP: 7.9 mg/dL
  K: 4.1 meq/L
  LDH: 56.4 IU/L
  Na: 141.6 meq/L
  PL: 125.2 mg/dL
  RALB: 2.7 g/dL
  TBIL: 0.04 mg/dL
  TC: 62.6 mg/dL
  TG: 69 mg/dL
  TP: 5.5 g/dL
  gamma-GTP: 1.2 IU/L
